Format in all cases: biochemical
Experiment [1] has as its target T1, SOD-1, from human erythrocytes (Homo sapiens, UniProt P00441).
T1 construct: SOD-1 was purchased from Sigma (purified from erythrocytes) and dissolved in the appropriate buffer; purchased Sigma-Aldrich Fine Chemicals (St. Louis, Mo., USA); host or cells: human erythrocytes
The experiment is described as follows: MCO (ascorbate/Cu)-induced SOD-1 aggregation, right angle light scattering. As for the experimental part:
The effect of pH, copper ions, and ascorbic acid on the induction of SOD-1 aggregation was examined as follows. […] Right angle light scattering was measured at room temperature using a Photon Technology International QM-1 fluorescence spectrophotometer. Both the excitation and emission wavelengths were set to 350 nm and a 1 nm bandpass. A cuvette with an excitation and emission path lengths of 2 mm and 10 mm, respectively was used for the measurements.
In addition, right angle light scattering was measured using a DynaPro99 Molecular Sizing Instrument with attached MicroSampler-MSXTC/12 (Protein Solutions, Inc., Charlottesville, Va.). A 12 μl-DynaPro quartz cuvette with a path length of 1.5 mm was used for all experiments. In the measurement, the SOD-1 sample solution was illuminated by a 60 mW, 825 nm solid-state laser, and the intensity of light scattered at a 90° angle was measured directly as the solution photon count rate in units of kcounts/sec. The averaged count rate was automatically calculated after all acquisitions of the measurements.

The next experiment concerns the target Zinc-deficient SOD-1 (Homo sapiens, UniProt P00441). Put plainly: MCO-induced aggregation of zinc-deficient SOD-1, light scattering. To be noted: 37° C. As for the experimental part: Apo-SOD-1 was incubated in the presence of a 1.1-fold molar excess of CuCl2 in 17 mM sodium acetate buffer, pH 3.8, for 24 hours at 40° C.
Zinc-deficient SOD-1 was prepared, MCO-treated, and used to test various compounds and conditions for their effect on SOD-1 aggregation. Zinc-deficient SOD-1 aggregation mixtures were incubated with either 2 mM EDTA, 10 mM mannitol, or 10 mM DMPO as probes for the reactive oxygen species. Anaerobic conditions were achieved by degassing all solutions and oxidizing under vacuum (37° C.) in a vacuum hydrolysis tube (Pierce). Aggregates were detected using light scattering measurements made with a Photon Technology International QM-1 fluorescence spectrophotometer. Excitation and emission wavelengths were set to 350 nm (bandpass=4 nm).

In the next experiment the target is apo-SOD-1 (Homo sapiens, UniProt P00441). Put plainly: Native state stabilization assay (thermal aggregation of apo-SOD-1, RP-HPLC of soluble SOD-1). Particulars: apo-SOD-1 incubated at 60° C. with exogenous metal. As for the experimental part: Apo-SOD-1 was prepared from holo-SOD-1 as reported (Crow et al., J. Neurochem., 69:1936, 1997). Holo-SOD-1 was first extensively dialyzed against 10 mM sodium acetate buffer containing 1 mM EDTA, pH 3.8 for 24-72 hours, then dialyzed against 10 mM sodium acetate buffer containing 100 mM NaCl, pH 3.8, and finally dialyzed against the desired buffer.
For FIG. 17, apo-SOD-1 (100 μl) prepared as described above at a concentration of 30 μM in 10 mM sodium acetate buffer, pH 5.0, was incubated for 24 hours at either 4°, 37°, or 60° C. in sealed polypropylene tubes. […] RP-HPLC was carried out on a Zorbax SB300 C8 column (3.0×10 cm, 3.5 μm particle size) using a linear 4% B per min AB gradient at a flow rate of 1.0 ml/min, where A was 0.1% aqueous TFA and B was 0.1% TFA in acetonitrile. Detection was based on UV absorbance at 215 nm. In contrast, the sample incubated at 60° C. contained essentially no soluble SOD-1 in the supernatant as measured by the same method of analysis.
An example of the use of the native state stabilization assay to test agents for inhibition of aggregation can be found in FIG. 18. Apo-SOD-1 samples were incubated under various conditions and analyzed by RP-HPLC to quantitate amounts of soluble SOD-1 remaining. Apo-SOD-1 incubated at 4° C. […] (positive aggregation control; chromatogram a). […]

Setting [2] is: 10 mM free radical scavenger in the oxidation reaction.

This is an account of results in US20030022243A1, “Protein aggregation assays and uses thereof” (priority 2001, published 2003).

Zinc-deficient SOD-1, sequence (P00441 2-154 limits assumed): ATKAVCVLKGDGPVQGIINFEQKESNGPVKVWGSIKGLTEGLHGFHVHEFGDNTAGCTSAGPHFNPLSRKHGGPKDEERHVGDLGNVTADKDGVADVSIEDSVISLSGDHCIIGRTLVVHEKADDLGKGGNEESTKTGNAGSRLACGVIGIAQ
T1 sequence (P00441 2-154 limits assumed): as above
apo-SOD-1, sequence (P00441 2-154 limits assumed): as above

With `[Cl][Cu][Cl]` [CuCl2], the “induction of SOD-1 aggregates” value in experiment [1] (25 μM CuCl2 in 10 mM sodium phosphate, no ascorbic acid, 38 hours) is given as “no aggregates of SOD-1 were induced”. In addition, in experiment [1] (addition of 25 μM CuCl2 to 2 mM ascorbic acid), the “relative amount of aggregation induced by ascorbic acid” value is given as “significantly enhanced”.
Regarding `CC1(C)CCC=[N+]1[O-]` [DMPO], at Zinc-deficient SOD-1 (setting [2]), the “inhibition of MCO-induced aggregation (light scattering)” value (“inhibition of MCO-induced aggregation” for short) was “did not inhibit aggregation”.
Consider `O=C(O)CN(CCN(CC(=O)O)CC(=O)O)CC(=O)O` [EDTA], for which the “inhibition of MCO-induced aggregation” value against Zinc-deficient SOD-1 (2 mM EDTA in the oxidation reaction) is “inhibited aggregation”.
Turning to `O=C1O[C@H]([C@@H](O)CO)C(O)=C1O` [ascorbic acid], the “induction of SOD-1 aggregates detectable by right angle light scattering” value in experiment [1] (2 mM ascorbic acid, 10 mM phosphate buffer pH 6, 37° C., 38 hours) was “resulted in the formation of aggregates”.
On to `[Cu]` [copper], for which the “soluble SOD-1 remaining versus apo-SOD-1 without exogenous metal (RP-HPLC)” value at apo-SOD-1 is listed as “significantly more soluble SOD-1”.
On to `OC[C@@H](O)[C@@H](O)[C@H](O)[C@H](O)CO` [mannitol], for which the “inhibition of MCO-induced aggregation” value against Zinc-deficient SOD-1 (setting [2]) is listed as “did not inhibit aggregation”.
Take `[Zn]` [zinc]: the “soluble SOD-1 remaining versus apo-SOD-1 without exogenous metal (RP-HPLC)” value on apo-SOD-1 is “significantly more soluble SOD-1”.
